The nature of series [1]: DSC keratin denaturation temperature change after curling treatment. The note with it: for ΔT (TUntreated−TAlkalizer, keratin denaturation temperature): Type 1 Chinese hair after curling treatment, larger ΔT indicates more damage; for damage to hair (in words): hair curling treatment, Type 1 Chinese hair. Further details: species or system human. The text has this:
(§1) This damage occurs at the level of keratin proteins.
(§2) Untreated hair was used as a control.
(§3) A larger ΔT indicates more damage.

Series [2] can be described thus: DSC keratin denaturation temperature change after straightening treatment. Further details: species or system human. The note with it: for ΔT (TUntreated−TAlkalizer, keratin denaturation temperature): Type 3 Caucasian hair after straightening, larger ΔT indicates more damage; for damage to hair (in words): hair straightening treatment, Type 3 Caucasian hair.
From the text: as §1, §2, §3

For series [3] the following is noted: active component of alkalizer; cited from earlier work.
Series [4] is described as follows: DSC keratin denaturation temperature change after curling treatment. The note with it: for ΔT (TUntreated−TAlkalizer, keratin denaturation temperature): Type 1 Caucasian hair after curling treatment, larger ΔT indicates more damage.
Description: It is known that the denaturation of keratin in hair can be detected by differential scanning calorimetry (DSC). DSC is a thermal analysis technique used to measure phase transition temperatures and heat of transformation (enthalpy) for endothermic and exothermic reactions.
For all of the test samples discussed above, DSC measurements were performed using the Discovery DSC 2500 (from TA Instruments. New Castle, DE). The experiments were carried out over a temperature range of 40° C. to 200° C., with a scan rate of 5° C./min under nitrogen protection. DSC samples were prepared by cutting tress samples into pieces (0.1 to 1.0 mm in size) and weighing. The hair samples were mixed with deionized water, and then sealed in high volume pans for at least 6 hours before measuring. The phase transition temperature (keratin denaturation temperature) of each hair sample was analyzed using TRIOS software (Discovery DSC 2500). Untreated hair was used as a control.
Each hair sample was analyzed at least twice, and the average temperature was obtained for data analysis. This was subtracted from the denaturation temperature of the control sample (ΔT=TUntreated−TAlkalizer). A larger ΔT indicates more damage.
The nature of series [5]: pH of hair perming composition. Type of series: physicochemical. The note with it: for pH: hair perming composition: base of Table 2 (7.50% thioglycolic acid) plus alkalizer, same molar percentage of alkalizer. The text has this: For testing, we prepared the hair perming compositions shown by Tables 2 and 3, below. […] All compositions contain the same molar percentage of alkalizer, the water content being adjusted accordingly.

Series [6] is described as follows: Curl efficiency after hair curling treatment. Further details: species or system human. The settings on record: for Curl Efficiency (%) After Treatment, 1 Wash and Dry: 1 wash with 5% SDS solution; for Curl Efficiency (%) After Treatment, 8 Washes and Dry: equivalent of 8 washes with 5% SDS solution. The text has this:
(§4) The ability of each test composition to curl hair was established by measuring “curl efficiency”. Curl efficiency is a measure of curl tightness following a hair curling treatment. The higher the efficiency, the tighter the curl. We used a well-known method of measuring curl efficiency, wherein a portion of untreated straight hair of known length, Lu, is secured on an arrangement of pegs to form a sine wave pattern of five cycles, crest-to-crest. Because the pegs are fixed, the ideal length, Li, of the portion of hair when arranged into the five-cycle wave pattern, is known. Starting with a straight swatch of hair of length Lu, the ideal outcome would be a curled swatch of hair with a length of Li. Curl efficiency is a measure of how closely the ideal is attained.
(§5) Two types of hair samples were tested for curling; mixed sourced virgin Type 1Caucasian hair, and single sourced virgin Type 1 hair. For straightening, mixed sourced virgin Type 2C (very wavy) Caucasian hair was tested. Hair straightening test samples were prepared by collecting hair fibers into tresses, and clamping each tress at both ends. For those test samples that were to undergo a straightening treatment, the length, Lu, was measured between two previously determined points.
(§6) Each hair tress was wetted (reverse osmosis water). For curling, each hair tress was wound along a peg board to form a sine wave pattern of five cycles, as described above. For straightening, each hair tress was held on a board in a straight conformation, tension was applied, and the ends of the tress were secured. All test samples (curling or straightening) were allowed to dry before proceeding. Each board with a hair tress test sample was dipped for 10 seconds into a beaker with one of the hair perming compositions. After removing a board from solution, it was immediately placed in an oven for 20 minutes at 37° C. (normal body temperature). The test sample was removed from the oven, and rinsed for five minutes with 37° C. water, being careful not to allow the running water to fall directly on the hair tresses. After blotting with a paper towel, test samples were allowed to rest for five minutes at room temperature, for air oxidation to occur. The hair straightening test samples were removed from the board, blow dried and flat ironed at 200° C., which is commonly done in salon practice. At this point, the ideal length, Li, was measured between the two previously determined point mentioned above. Thereafter, each sample was rebound to the board.
(§7) Each bound hair tress was submerged for ten seconds in a 2% solution of H2O2 to neutralize the reducing agent and promote S-S bond formation, so that the hair tress would retain a desired shape (sine wave pattern or straight) when removed from the board. Each hair tress rested at room temperature for about five minutes, then was rinsed under 37° C. running water for five minutes, and subsequently blotted with a paper towel. Each test sample hair tress was removed from the board, laid on a flat surface, and allowed to dry. The fully permed dry tresses were washed in 5% SDS (sodium dodecyl sulfate) solution (which simulates salon practice) and allowed to dry overnight.
(§8) For the curling test samples, the length, Lt, of five waves, crest to crest was measured. For the straightening test samples, the final length, Lt, was measured between the two previously determined points. At this point, differential scanning calorimetry (DSC) measurements were made on a portion of each hair tress test sample. Also, for longevity performance, each tress was subjected to the equivalent of eight hand washings in 5% SDS solution using the GyroWash color fastness to laundering tester, and allowed to dry, before another length measurement, Lt, was made.
(§9) Curl efficiencies were computed using Equation 1.
(§10) [formula] • Lu=length of the untreated hair tress • Lt=crest-to-crest length of the five-wave portion of the treated hair tress • Li=ideal length of curled hair […]

The nature of series [7]: Curl efficiency after hair curling treatment. On the set-up: species or system human; % Change In Curl Efficiency From 1 to 8 Washes: concentration or dose not given beside the values. The settings on record: for Curl Efficiency (%) After Treatment, 1 Wash and Dry: 1 wash with 5% SDS solution; for Curl Efficiency (%) After Treatment, 8 Washes and Dry: equivalent of 8 washes with 5% SDS solution.
From the text: as §4, §5, §6, §7, §8, §9, §10

A short description of series [8]: Straightening efficiency after hair straightening treatment. Further details: species or system human. The note with it: Type 2C Caucasian hair; 1 wash with 5% SDS solution.
From the text: The ability of each test composition to straighten curly hair was established by measuring “straightening efficiency”. Straightening efficiency represents the degree to which curly hair is made straight by a hair straightening treatment. We start with a curly, untreated hair tress of length Lu. The tress has an ideal straight length of Li, which is the length of the untreated tress when flat ironed to its maximum, straight length. After treatment the tress has a length of Lt. Straightening efficiency is the gain in length as a percentage of the maximum possible gain in length. […] A straightening efficiency of 100% means that the treated tress retained the maximum possible length.
as §5, §6, §7, §8
Straightening efficiencies were computed using Equation 2.
[formula] • Lu=length of the untreated hair tress • Lt=length of treated hair tress • Li=ideal length of straightened hair
(Li−Lu) represents the maximum possible increase in length as a result of treatment. […]

The text below walks through data of patent publication US20250127698A1, “Hair Perming Compositions With Amine Derivatives” (ELC Management LLC, priority 2023, published 2025).

Take `CC(C)(N)CO` [AMP, Aminomethyl propanol, reference compound]: the entries for the “ΔT (TUntreated−TAlkalizer, keratin denaturation temperature)” value in series [1], in series [2] and in series [4] were 1.65 C. °, 2.60 °C and 3.11 °C, respectively. In series [3], the pKa is 9.82.
Turning to `[Na+].[OH-]` [NaOH, reference compound], the “pH of alkalizer composition” value in series [5] (Table 7), in series [5] (Table 8) and in series [5] (Table 9) was 10.56 each time. Also, the pH in series [5] is listed as 10.56. For the same molecule, the “% Change In Curl Efficiency From 1 to 8 Washes” value in series [6] (Type 1 Caucasian hair) is on record as −17.64%; in series [7] (Type 1 Chinese hair), −19.92%. Besides, the “Curl Efficiency (%) After Treatment, 1 Wash and Dry” value in series [6] (Type 1 Caucasian hair) is listed as 47.66%; in series [7] (Type 1 Chinese hair) it was 54.86%. For the same molecule, the “Curl Efficiency (%) After Treatment, 8 Washes and Dry” value in series [6] (Type 1 Caucasian hair) was found to be 39.25%; in series [7] (Type 1 Chinese hair), 43.93%. In addition, the “Straightening Efficiency (%) After Treatment, 1 Wash and Dry” value in series [8] was 65.71%. In addition, the figures for the “ΔT (TUntreated−TAlkalizer, keratin denaturation temperature)” value in series [1], in series [2] and in series [4] were 5.60 C. °, 4.60 °C and 6.34 °C, respectively.
As for `NC(CO)CO` [Serinol, 2-Amino-1,3-propanediol], the “pH of alkalizer composition” value in series [5] (Table 7), in series [5] (Table 8) and in series [5] (Table 9) was 8.68 in each case. Besides, the pH in series [5] is reported as 8.68. In addition, the “% Change In Curl Efficiency From 1 to 8 Washes” value was −8.15% in series [6] (Type 1 Caucasian hair) and −14.82% in series [7] (Type 1 Chinese hair). The “Curl Efficiency (%) After Treatment, 1 Wash and Dry” value was 45.79% in series [6] (Type 1 Caucasian hair) and 50.47% in series [7] (Type 1 Chinese hair). Besides, the “Curl Efficiency (%) After Treatment, 8 Washes and Dry” value in series [6] (Type 1 Caucasian hair) was 42.06%; in series [7] (Type 1 Chinese hair), 42.99%. Further, the “Straightening Efficiency (%) After Treatment, 1 Wash and Dry” value in series [8] was 88.24%. Moreover, the “ΔT (TUntreated−TAlkalizer, keratin denaturation temperature)” value came to 0.62 C. ° in series [1], 0.50 °C in series [2] and 1.76 °C in series [4]. For the same molecule, the “damage to hair (in words)” value in series [1] is given as “less damage than ammonium hydroxide”; in series [2], “less damage than ammonium hydroxide”; in series [4] (hair curling treatment, Type 1 Caucasian hair) it was “less damage than ammonium hydroxide”.
With DL-2-amino-1-propanol [DL-2-AP], the “pH of alkalizer composition” value in series [5] (Table 7), in series [5] (Table 8) and in series [5] (Table 9) was 9.45 in each case. Further, the pH in series [5] is 9.45. Further, the “curl after the equivalent of 8 washes (in words)” value in series [6] (Caucasian hair) and in series [7] (Chinese hair) was “still had the most curl” each time. Besides, the “curl lost after the equivalent of 8 washes, as percentage of initial curl (in words)” value in series [6] (Caucasian hair) and in series [7] (Chinese hair) was “lost the most curl of the tested samples” each time. The figures for the “% Change In Curl Efficiency From 1 to 8 Washes” value in series [6] (Type 1 Caucasian hair) and in series [7] (Type 1 Chinese hair) were −11.11% and −21.01%, respectively. The “imparting curl (in words)” value in series [6] (Type 1 Caucasian hair) and in series [7] (Type 1 Chinese hair) was “best at imparting curl” in each case. The “Curl Efficiency (%) After Treatment, 1 Wash and Dry” value in series [6] (Type 1 Caucasian hair) is recorded as 50.47%; in series [7] (Type 1 Chinese hair) it was 69.81%. Moreover, the “Curl Efficiency (%) After Treatment, 8 Washes and Dry” value stood at 44.86% in series [6] (Type 1 Caucasian hair) and 55.14% in series [7] (Type 1 Chinese hair). In addition, the “Straightening Efficiency (%) After Treatment, 1 Wash and Dry” value in series [8] turned out to be 95.35%. The “ΔT (TUntreated−TAlkalizer, keratin denaturation temperature)” value in series [1] was determined as 3.49 C. °; in series [2], 3.20 °C; in series [4], 3.95 °C. For the same molecule, the “damage to hair (in words)” value is “did not perform as well as the other alkalizers” in series [1] and “more damage than ammonium hydroxide, MEA or AMP” in series [2]. Moreover, the pKa in series [3] is recorded as 9.6.

In general, pKa refers to the pH at which an ionisable group is half protonated.
